The text below walks through data of patent US20240182531A1, “KV1.3 Blockers” (priority 2021, published 2024).

One data set has as its target T1, human Kv1.3 (Homo sapiens, UniProt P22001).
T1 construct: expressed in transfected cells; host or cells: CHO
The data set is described as follows: cell-based. As to conditions: CHO cells, QPatch whole-cell; read-out: Potency IC50 Kv1.3. In general terms: In patch-clamp work, channel activity is measured electrically.

Another data set addresses T2, human Kv1.6 (Homo sapiens, UniProt P17658).
T2 construct: expressed in transfected cells; host or cells: CHO
The data set is described as follows: cell-based. As to conditions: for IC50: CHO cells, QPatch whole-cell, read-out: Potency IC50 Kv1.6; for Selectivity ratio Kv1.6/Kv1.3: ratio of patch clamp IC50 values.

Data set [1] is described as follows: Pharmacokinetic characterisation after single s.c. injection in Sprague Dawley rats. As to conditions: male, rat, plasma, sc, 100 nmol/kg. The method, then: Sprague Dawley (males with a body weight of approximately 250-350 g) were given a single subcutaneous (s.c.) injection of each peptide to be tested.
Following s.c. administration of the selected compounds (dose 100 nmol/kg, dosing volume either 2 mL/kg), blood samples were drawn at 5 min, 15 min, 30 min, 60 min, 2 h, 3 h, 4 h, 6 h, 8 h post-dose. At each sampling time point, samples from the rats were drawn by sublingual bleeding. After last sampling the rats were sacrificed by O2/CO2 anaesthesia. The dosing vehicle was 10 mM phosphate, 0.8% NaCl, 0.05% Polysorbate 20 (pH 6.0).
Plasma samples were analyzed after solid phase extraction (SPE) by liquid chromatography mass spectrometry (LC-MS/MS). Mean plasma concentrations were used for calculation of the pharmacokinetic parameters using the non-compartmental approach in Phoenix WinNonlin 6.4 or a later version. Plasma terminal elimination half-life (T½) was determined as In(2)/λz where λz is the magnitude of the slope of the log linear regression of the log concentration versus time profile during the terminal phase. AUCinf is the area under the plasma concentration—time curve extrapolated to infinity (AUCinf=AUClast+Clast/λz, where Clast is the last observed plasma concentration). Cmax is the maximum observed concentration, occurring at Tmax.

For the next data set, the target named is T3, human Kv1.2 (Homo sapiens, UniProt P16389).
T3 construct: expressed in transfected cells; host or cells: CHO
T3 sequence (P16389 whole entry): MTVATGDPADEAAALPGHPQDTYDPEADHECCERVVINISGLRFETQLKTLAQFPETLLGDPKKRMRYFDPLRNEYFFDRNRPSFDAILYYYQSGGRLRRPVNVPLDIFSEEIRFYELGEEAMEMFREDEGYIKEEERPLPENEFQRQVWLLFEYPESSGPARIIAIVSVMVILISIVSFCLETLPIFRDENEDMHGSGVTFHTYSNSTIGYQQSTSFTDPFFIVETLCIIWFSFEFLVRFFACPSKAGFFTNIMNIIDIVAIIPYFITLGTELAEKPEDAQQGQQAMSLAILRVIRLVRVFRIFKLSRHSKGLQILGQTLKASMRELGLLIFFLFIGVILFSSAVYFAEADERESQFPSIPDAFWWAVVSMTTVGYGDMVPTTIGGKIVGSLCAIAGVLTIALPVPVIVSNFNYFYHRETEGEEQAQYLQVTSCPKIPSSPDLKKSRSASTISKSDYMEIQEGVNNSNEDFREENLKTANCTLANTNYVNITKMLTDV
The experiment in a line: cell-based. As to conditions: for IC50: CHO cells, QPatch whole-cell, read-out: Potency IC50 Kv1.2; for Selectivity ratio Kv1.2/Kv1.3: ratio of patch clamp IC50 values.

The next data set concerns the target T4, human Kv1.1 (Homo sapiens, UniProt Q09470).
T4 construct: expressed in transfected cells; host or cells: CHO
The data set is described as follows: cell-based. As to conditions: for IC50: CHO cells, QPatch whole-cell, read-out: Potency IC50 Kv1.1; for Selectivity ratio Kv1.1/Kv1.3: ratio of patch clamp IC50 values.

Data set [2] has as its target T5, human Kv1.3 voltage-gated K+ channel (Homo sapiens, UniProt P22001).
T5 construct: host or cells: CHO-DUKX
The data set is described as follows: Kv1.3 blocker activity in FLIPR thallium assay. It counts as cell-based. Put shortly:
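CHO-DUKX cells stably expressing Kv1.3 were pre-incubated with compound for 30 min at 37° C in buffer with 0.02% w/v casein. Depolarization used final stimulus buffer with 5 mM K2SO4 and 1 mM Tl2SO4. Thallium-flux fluorescence was read at maximum response at 50 s, 37° C, and IC50 derived.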

Data set [3] is described as follows: Pharmacokinetic characterisation according to example 6 of PCT/EP2020/076187. The note with it: in vivo; dose 70 nmol/kg. The procedure: The pharmacokinetic characterization of compound 14 were performed according to the method described in example 6 of international patent application PCT/EP2020/076187.
The target in the next data set is Rat whole blood (Rattus norvegicus, UniProt P15384). It counts as cell-based. The note with it: IL-17A release, thapsigargin, 24 Hr, at least 2 replicates.
Sequence of Rat whole blood (P15384 whole entry): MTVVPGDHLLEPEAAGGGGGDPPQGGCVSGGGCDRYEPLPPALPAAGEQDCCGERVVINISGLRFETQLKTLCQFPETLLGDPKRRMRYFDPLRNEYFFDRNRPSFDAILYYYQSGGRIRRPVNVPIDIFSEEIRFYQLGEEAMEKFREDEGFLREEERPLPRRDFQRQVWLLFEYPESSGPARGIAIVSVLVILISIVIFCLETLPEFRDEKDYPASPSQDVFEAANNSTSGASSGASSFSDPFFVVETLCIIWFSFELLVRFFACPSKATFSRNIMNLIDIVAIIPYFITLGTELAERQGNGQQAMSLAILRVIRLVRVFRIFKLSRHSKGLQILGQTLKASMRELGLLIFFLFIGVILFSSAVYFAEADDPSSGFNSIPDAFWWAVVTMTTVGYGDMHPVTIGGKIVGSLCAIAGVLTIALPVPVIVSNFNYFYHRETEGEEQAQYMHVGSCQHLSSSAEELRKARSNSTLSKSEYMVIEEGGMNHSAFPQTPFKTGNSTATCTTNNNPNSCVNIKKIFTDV
Data set [4] addresses human Kv1.6 potassium ion channel (human) (UniProt P17658). The experiment in a line: cell-based or functional assay.
Data set [5] has as its target human Kv1.3 (potassium voltage-gated channel subfamily A member 3) (human) (UniProt P22001). The experiment in a line: cell-based or functional assay.
Data set [6] addresses human Kv1.2 potassium ion channel (human) (UniProt P16389). The data set is described as follows: cell-based or functional assay.
For data set [7], the target named is human Kv1.1 potassium ion channel (human) (UniProt Q09470). The experiment in a line: cell-based or functional assay.
Sequence of human Kv1.1 potassium ion channel (human) (Q09470 whole entry): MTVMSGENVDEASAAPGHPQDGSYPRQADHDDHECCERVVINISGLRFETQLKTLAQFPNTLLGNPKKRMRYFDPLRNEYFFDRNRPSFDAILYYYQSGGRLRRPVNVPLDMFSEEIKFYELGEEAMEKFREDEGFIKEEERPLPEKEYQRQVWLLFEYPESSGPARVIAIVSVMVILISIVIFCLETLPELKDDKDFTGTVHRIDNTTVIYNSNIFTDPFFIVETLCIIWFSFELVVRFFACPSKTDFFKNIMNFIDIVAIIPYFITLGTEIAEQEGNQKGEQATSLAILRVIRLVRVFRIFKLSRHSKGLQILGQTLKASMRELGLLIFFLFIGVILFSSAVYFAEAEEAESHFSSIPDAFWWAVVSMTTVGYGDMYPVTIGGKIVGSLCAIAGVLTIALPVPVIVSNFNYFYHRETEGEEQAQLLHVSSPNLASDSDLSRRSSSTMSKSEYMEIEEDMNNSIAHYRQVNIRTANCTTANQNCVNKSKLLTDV
Data set [8] concerns the target human Kv1.3 voltage-gated K+ channel (potassium voltage-gated channel subfamily A member 3) (human) (UniProt P22001). The experiment in a line: cell-based or functional assay.

Where a SMILES comes first, the peptide text is derived from it. Bridges are numbered along the chain shown (N, C = ends). [ ]: non-standard residue; d: D form. Agp = N=C(N)NC[C@H](N)C(=O)O; Nle = CCCC[C@H](N)C(=O)O; Dab = NCC[C@H](N)C(=O)O

T2 sequence (P17658 whole entry): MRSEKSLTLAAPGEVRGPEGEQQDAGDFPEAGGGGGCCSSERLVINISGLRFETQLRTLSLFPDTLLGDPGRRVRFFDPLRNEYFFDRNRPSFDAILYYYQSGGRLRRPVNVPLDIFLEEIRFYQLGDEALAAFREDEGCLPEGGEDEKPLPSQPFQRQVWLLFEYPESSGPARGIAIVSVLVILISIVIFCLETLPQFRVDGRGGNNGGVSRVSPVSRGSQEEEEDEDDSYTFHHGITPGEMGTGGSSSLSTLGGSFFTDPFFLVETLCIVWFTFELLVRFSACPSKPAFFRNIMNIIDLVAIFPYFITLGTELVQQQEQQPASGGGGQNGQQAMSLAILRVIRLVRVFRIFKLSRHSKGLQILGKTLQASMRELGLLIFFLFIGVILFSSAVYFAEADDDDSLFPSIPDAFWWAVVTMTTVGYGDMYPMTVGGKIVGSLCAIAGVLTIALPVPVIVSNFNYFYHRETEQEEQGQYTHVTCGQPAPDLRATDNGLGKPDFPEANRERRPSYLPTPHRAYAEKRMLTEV
Sequence of human Kv1.6 potassium ion channel (human) (P17658 whole entry): as above
Sequence of human Kv1.3 (potassium voltage-gated channel subfamily A member 3) (human) (P22001 whole entry): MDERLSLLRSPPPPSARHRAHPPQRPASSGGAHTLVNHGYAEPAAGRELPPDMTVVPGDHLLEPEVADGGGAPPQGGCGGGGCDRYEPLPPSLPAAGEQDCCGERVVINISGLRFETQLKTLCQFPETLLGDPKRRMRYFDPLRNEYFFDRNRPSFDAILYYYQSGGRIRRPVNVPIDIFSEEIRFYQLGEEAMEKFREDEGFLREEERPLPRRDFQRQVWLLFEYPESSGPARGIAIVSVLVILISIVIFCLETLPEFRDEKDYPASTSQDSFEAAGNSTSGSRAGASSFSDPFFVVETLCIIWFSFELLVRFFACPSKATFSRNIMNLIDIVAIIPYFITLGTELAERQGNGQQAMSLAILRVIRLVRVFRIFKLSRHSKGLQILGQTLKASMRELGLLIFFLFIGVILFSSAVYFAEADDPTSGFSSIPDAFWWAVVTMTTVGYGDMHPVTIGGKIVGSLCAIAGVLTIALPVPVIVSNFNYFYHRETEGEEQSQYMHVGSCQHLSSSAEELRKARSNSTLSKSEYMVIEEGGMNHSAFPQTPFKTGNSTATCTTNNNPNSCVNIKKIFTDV
Sequence of human Kv1.2 potassium ion channel (human) (P16389 whole entry): as the sequence (P16389 whole entry) above
T4 sequence (Q09470 whole entry): as the sequence (Q09470 whole entry) above
T1 sequence (P22001 whole entry): as the sequence (P22001 whole entry) above
T5 sequence (P22001 whole entry): as above
Sequence of human Kv1.3 voltage-gated K+ channel (potassium voltage-gated channel subfamily A member 3) (human) (P22001 whole entry): as above

Usually IC50 stands for the concentration that inhibits the measured activity by half. Usually AUC(0-inf) stands for total exposure, with the tail of the curve extrapolated. Higher therefore signals high exposure. What is called Cmax is the maximum level reached in the sampled fluid or tissue. The half-life is how long it takes for the measured level to halve. A low value points to fast loss. As to `CCCC[C@H](NC(=O)[C@@H]1CCCN1)C(=O)N[C@@H](CCC(=O)O)C(=O)N[C@@H](CCCC)C(=O)N[C@@H](CCCNC(=N)N)C(=O)N[C@H]1CSSC[C@@H]2NC(=O)[C@H](CCCCN)NC(=O)CNC(=O)[C@H](Cc3ccccc3)NC(=O)[C@H]([C@@H](C)CC)NC(=O)[C@H](CO)NC(=O)CNC(=O)[C@H]([C@@H](C)CC)NC(=O)[C@H](C)NC(=O)[C@H](C)NC(=O)[C@H](CC(C)C)NC(=O)[C@@H]3CSSC[C@@H](C(=O)N[C@@H](Cc4ccc(O)cc4)C(=O)N4CCC[C@H]4C(=O)N[C@@H](CCCNC(=N)N)C(=O)O)NC(=O)[C@H](CCCCN)NC(=O)[C@H](CSSC[C@H](NC(=O)[C@H](CCC(=O)O)NC(=O)[C@H](C(C)C)NC(=O)[C@H](CO)NC(=O)[C@H](C)NC(=O)[C@H](CCN)NC1=O)C(=O)N[C@@H](CCCCN)C(=O)N[C@@H](CCC(N)=O)C(=O)N[C@@H](CCCCN)C(=O)N3)NC(=O)[C@H](CCCCN)NC(=O)[C@H](CCCCN)NC(=O)[C@H](CC(N)=O)NC(=O)[C@H](CCCC)NC2=O` [Cpd No. 1] (H-P[Nle]E[Nle]RC[Dab]ASVECKQKCLAAIGSIFGKC[Nle]NKKCKCYPR-OH; disulfide 6-27, 12-32, 16-34), on human Kv1.3, the IC50 turned out to be 0.028 nM. At human Kv1.6, the IC50 was > 3 µM and the “Selectivity ratio Kv1.6/Kv1.3” value is given as >100000. In [1], this compound gave a total exposure AUC(0-inf) of 0.152 µM·h, a Cmax of 90.8 nM and a half-life of 102 min. On human Kv1.2, the IC50 came to 480 nM and the “Selectivity ratio Kv1.2/Kv1.3” value is given as 17000. In addition, on human Kv1.1, the IC50 is > 3 µM and the “Selectivity ratio Kv1.1/Kv1.3” value was >100000. Further, 0.12 nM corresponded to half-maximal inhibition in [2] (IC50).
Take `CCCC[C@H](NC(=O)[C@@H]1CCCN1)C(=O)N[C@@H](CCC(=O)O)C(=O)N[C@@H](CCCC)C(=O)N[C@@H](CCCNC(=N)N)C(=O)N[C@H]1CSSC[C@@H]2NC(=O)[C@H](CCCCN)NC(=O)CNC(=O)[C@H](Cc3ccccc3)NC(=O)[C@H]([C@@H](C)CC)NC(=O)[C@H](CO)NC(=O)CNC(=O)[C@H]([C@@H](C)CC)NC(=O)[C@H](C)NC(=O)[C@H](C)NC(=O)[C@H](CC(C)C)NC(=O)[C@@H]3CSSC[C@@H](C(=O)N[C@@H](Cc4ccc(O)cc4)C(=O)N4CCC[C@H]4C(=O)N[C@@H](CCCNC(=N)N)C(=O)O)NC(=O)[C@H](CCCCN)NC(=O)[C@H](CSSC[C@H](NC(=O)[C@H](CCC(=O)O)NC(=O)[C@H](C(C)C)NC(=O)[C@H](CO)NC(=O)[C@H](C)NC(=O)[C@H](CNC(=N)N)NC1=O)C(=O)N[C@@H](CCCCN)C(=O)N[C@@H](CCC(N)=O)C(=O)N[C@@H](CCCCN)C(=O)N3)NC(=O)[C@H](CCCCN)NC(=O)[C@H](CCCCN)NC(=O)[C@H](CC(N)=O)NC(=O)[C@H](CCCC)NC2=O` [Cpd No. 3] (H-P[Nle]E[Nle]RC[Agp]ASVECKQKCLAAIGSIFGKC[Nle]NKKCKCYPR-OH; disulfide 6-27, 12-32, 16-34): the IC50 was 0.064 nM at human Kv1.3; > 3 µM at human Kv1.6; 380 nM at human Kv1.2; > 3 µM at human Kv1.1; 0.13 nM in data set [2]. Besides, at human Kv1.6, the “Selectivity ratio Kv1.6/Kv1.3” value is recorded as >46000. For the same compound, the “Selectivity ratio Kv1.2/Kv1.3” value at human Kv1.2 worked out at 6000. Besides, the “Selectivity ratio Kv1.1/Kv1.3” value on human Kv1.1 is recorded as >46000.
As for `CCCC[C@H](NC(=O)[C@@H]1CCCN1)C(=O)N[C@@H](CCC(=O)O)C(=O)N[C@@H](CCCC)C(=O)N[C@@H](CCCNC(=N)N)C(=O)N[C@H]1CSSC[C@@H]2NC(=O)[C@H](CCCCN)NC(=O)CNC(=O)[C@H](Cc3ccccc3)NC(=O)[C@H]([C@@H](C)CC)NC(=O)[C@H](CO)NC(=O)CNC(=O)[C@H]([C@@H](C)CC)NC(=O)[C@H](C)NC(=O)[C@H](C)NC(=O)[C@H](CC(C)C)NC(=O)[C@@H]3CSSC[C@@H](C(=O)N[C@@H](Cc4ccc(O)cc4)C(=O)N4CCC[C@H]4C(=O)N[C@@H](CCCNC(=N)N)C(N)=O)NC(=O)[C@H](CCCCN)NC(=O)[C@H](CSSC[C@H](NC(=O)[C@H](CCC(=O)O)NC(=O)[C@H](C(C)C)NC(=O)[C@H](CO)NC(=O)[C@H](C)NC(=O)[C@H](CO)NC1=O)C(=O)N[C@@H](CCCCN)C(=O)N[C@@H](CCC(N)=O)C(=O)N[C@@H](CCCCN)C(=O)N3)NC(=O)[C@H](CCCCN)NC(=O)[C@H](CCCCN)NC(=O)[C@H](CC(N)=O)NC(=O)[C@H](CCCC)NC2=O` [compound 13] (H-P[Nle]E[Nle]RCSASVECKQKCLAAIGSIFGKC[Nle]NKKCKCYPR-NH2; disulfide 6-27, 12-32, 16-34), the “Selectivity ratio Kv1.6/Kv1.3” value on human Kv1.6 is >16200. In [3], this compound gave an AUC(0-inf) of 0.0268 µM·h, a Cmax of 16.5 nM and a half-life of 102 min. On Rat whole blood, this compound gave an IC50 of 0.34 nM. On human Kv1.2, the “Selectivity ratio Kv1.2/Kv1.3” value came out at 1689. The “Selectivity ratio Kv1.1/Kv1.3” value on human Kv1.1 was >16200.
For Moka1 (peptide), in [4], the Potency IC50 (nM) Kv1.6 is > 3000 nM and the Selectivity Kv1.6/Kv1.3 was > 300. The Potency IC50 (nM) Kv1.3 in [5] was 9 nM. In data set [6], the Potency IC50 (nM) Kv1.2 is 275 nM and the Selectivity Kv1.2/Kv1.3 worked out at 31. For the same compound, in data set [7], the Potency IC50 (nM) Kv1.1 was > 3000 nM and the Selectivity Kv1.1/Kv1.3 was > 300.
Take ShK (peptide): the Potency IC50 (nM) Kv1.6 in data set [4] was determined as 0.19 nM. In data set [5], this compound gave a Potency IC50 (nM) Kv1.3 of 0.017 nM. In data set [6], the Potency IC50 (nM) Kv1.2 came to 11 nM.
For “ShK-186: H-[phosphotyrosyl][8-Amino-3,6-dioxaoctanoyl]…-NH2 (peptide)”, the IC50 of IL-2 release, anti-CD3 stimulated human PBMCs (Example 5b) in data set [8] was determined as 0.05 nM.
In [4], Vm24 (peptide) showed a Potency IC50 (nM) Kv1.6 of 21 nM and a Selectivity Kv1.6/Kv1.3 of 139. Further, the Potency IC50 (nM) Kv1.3 in data set [5] amounted to 0.15 nM. Moreover, in data set [6], the Potency IC50 (nM) Kv1.2 is 4.7 nM and the Selectivity Kv1.2/Kv1.3 was 31. Moreover, in data set [7], the Potency IC50 (nM) Kv1.1 was 0.097 nM and the Selectivity Kv1.1/Kv1.3 was determined as 0.65.
